Assay results from patent US10005844B2, “Polynucleotides encoding anti-Notch1 NRR antibody polypeptides” (Genentech, Inc., priority 2007, dated 2018).

Assays:
Format in all cases: cell-based
MT-3 = experiment: CellTiter-Glo Luminescent Cell Viability Assay, MT-3; conditions: breast carcinoma line, FIG. 17
Source text: (§1) The effects of anti-Notch1 NRR and the gamma secretase inhibitors DAPT and “Compound E” (CmpE) on a panel of cancer cell lines were examined. […] This assay determines the number of viable cells in culture based on quantitation of ATP present, which is an indication of metabolically active cells. Luminescence is quantified as “relative luminescent units” in FIG. 17 (y-axis).

OVCAR-3 = experiment: CellTiter-Glo Luminescent Cell Viability Assay, OVCAR-3; conditions: ovarian cancer cell line, FIG. 17
Source text: as §1

Mouse C2C12 myoblasts = experiment: C2C12 myoblast differentiation assay; conditions: Antibody A 200 ng/ml, Compound E 1 uM, four days, FIG. 9 and 10
Procedure: Mouse C2C12 myoblasts differentiate into myotubes when treated with differentiation medium. Co-culture with Jagged1 ligand-expressing cells inhibits differentiation by stimulating Notch signaling.
In particular, mouse C2C12 myoblast cells were plated in a 24-well tissue culture dish with a sterile round, 10 mm cover slip in the bottom at 2.5×10^4 cells per ml, using 1 ml per well. Cells were allowed to attach and grow for 22 hours in growth medium (DMEM with 10% FBS) at 37° C., 5% CO2. The growth medium was then aspirated and differentiation medium (DM) was added (DMEM with 6% Horse Serum). Cells were treated with: A. DM alone; B. DM with 3T3-J1 cells; C. […] Cells were incubated at 37° C., 5% CO2 under these conditions for four days. Cover slips were retrieved, and cells were fixed with 4% paraformaldehyde and permeablized with 0.2% Triton X-100 in PBS. Cells were then blocked with 10% FBS in PBS. An antibody recognizing Myosin Heavy Chain (Millipore, Anti-Myosin HC, clone A4.1025 ascites) and a goat anti-mouse IgG (H+L) secondary antibody conjugated to Alexa® 488 (Molecular Probes) was used to stain the differentiated myotubes. DAPI was used to counter-stain the nuclei. Images of three different fields were taken for each condition. Metamorph software (Molecular Devices) was used to count the number of nuclei and the area of Alexa® 488 stain. […]

| SMILES | Cell viability (ATP levels), MT-3 (MT-3) | Cell viability (ATP levels), OVCAR-3 (OVCAR-3) | Differentiation of C2C12 myoblasts blocked by Jagged1 co-culture (Mouse C2C12 myoblasts) |
| --- | --- | --- | --- |
| C[C@H](NC(=O)Cc1cc(F)cc(F)c1)C(=O)N[C@H](C(=O)OC(C)(C)C)c1ccccc1 [DAPT, N—[N-(3,5-difluorophenacetyl)-L-alanyl]-S-phenylglycine t-butyl ester] | reduced ATP levels | reduced ATP levels |  |
| C[C@H](NC(=O)Cc1cc(F)cc(F)c1)C(=O)N[C@H]1N=C(c2ccccc2)c2ccccc2N(C)C1=O [Compound E] | reduced ATP levels | reduced ATP levels | restored differentiation |
